These are literature values, as cited in patent US6423847B1, “Synthesis and clinical uses of D,α-tocopherol nicotinate compounds” (Chronorx, LLC, priority 1999, dated 2002).

Each structure is given as a SMILES string. Like-named read-outs stand apart in the source and are kept apart here.

As usually defined, the cell viability is the share of living cells, or the viability signal relative to a control.

The subject of data set [1] is liver NAD+; poly(ADP-ribose).
Data set [2] concerns malonyldialdehyde and superoxide anion levels. As to conditions: 400 mg once a day, orally for 4 weeks.
Data set [3] has as its system glutathione peroxidase (GSHPx). As to conditions: following supplementation with DAT.
Data set [4] concerns human aortic endothelial cells. The conditions noted are these: human aortic endothelial cells pre-incubated with vitamin E, oxidative stress; increased from 37%.
The test system of data set [5] is exogenous glucose utilization by the heart. The conditions noted are these: normal volunteers, 18F-fluorodeoxyglucose PET.
For data set [6] the following is noted: laboratory mice.

Regarding `NC(=O)c1cccnc1` [nicotinamide], the “liver polyADP-ribose” value in data set [1] (above control groups) was “significantly elevates”. Also, the “liver NAD+” value in data set [1] (at 1000 mg/kg) is listed as “elevations”.

Turning to `Cc1c(C)c2c(c(C)c1O)CC[C@@](C)(CCC[C@H](C)CCC[C@H](C)CCCC(C)C)O2` [vitamin E, D,α-tocopherol], in data set [2], the malonyldialdehyde levels entry is listed as “significantly reduces” and the superoxide anion levels entry is “significantly reduces”. Further, the “glutathione peroxidase (GSHPx) activities” value in data set [3] is on record as “increase as much as twofold”. Besides, the cell viability in data set [4] is listed as 85%.

In the case of `O=C(O)c1cccnc1` [Nicotinic acid, nicotinic acid], the “increase in exogenous glucose utilization by the heart” value in data set [5] is “two- to three-fold increase”. Further, the “increase in Zn+2 absorption” value was 38.9% in data set [6] (fasting states) and 70.9% in data set [6] (postprandial conditions).
